Laboratory results: ChEMBL document CHEMBL1159268, “The structures of new lanostane triterpenes from the fruiting bodies of Hebeloma senescens” (J Nat Prod, 1995)
In brackets after ≈: the same amount, converted by molar mass. Activity calls are given as the source filed them. The calls are words filed in the database; no cut-off is given here.

What was measured:
Escherichia coli = assay: Antibacterial activity against Escherichia coli; format: functional, organism-based
Candida albicans = assay: […] activity against Candida albicans; format: functional, organism-based
[1] = Toxicity against Artemia salina; format: organism-based; settings: in vivo, read-out: LD50 (the source's name)

Row | SMILES | Activity (Escherichia coli) | Activity (Candida albicans) | LC50 [1] [mg/L]
1 | CC(=O)O[C@H]1O[C@@H](C(C)(C)O)CC[C@@H]1[C@H]1CC[C@@]2(C)C3=C(CC[C@]12C)[C@@]1(C)C[C@@H](OC(=O)C[C@@](C)(O)CC(=O)O)[C@H](OC(C)=O)C(C)(C)[C@@H]1CC3 [HEBELOMIC ACID F] | inactive | inactive | 19.7 (≈ 27.4 µM)
2 | CC(=O)O[C@H]1[C@H](OC(=O)C[C@@](C)(O)CC(=O)O)C[C@]2(C)C3=C(CC[C@H]2C1(C)C)[C@]1(C)CC[C@H]([C@H]2CC[C@H](C(C)(C)O)O[C@@H]2O)[C@@]1(C)[C@@H](O)C3 [HEBELOMIC ACID A] | inactive | inactive | 96.5 (≈ 139 µM)
3 | CC(=O)O[C@H]1CC2=C(CC[C@H]3C(C)(C)[C@@H](OC(C)=O)[C@H](OC(=O)C[C@@](C)(O)CC(=O)O)C[C@]23C)[C@]2(C)CC[C@H]([C@H]3CC[C@H](C(C)(C)O)O[C@@H]3O)[C@@]12C [HEBELOMIC ACID B] | inactive | inactive | 386 (≈ 525 µM)
